Test results from US9708247B2, “Modulators of the eIF2alpha pathway” (The Regents of the University of California, priority 2013, dated 2017).

test system: ATF4 luciferase reporter; assay: ATF4 luciferase reporter assay (Cell-luc) in HEK293T cells; assay type: cell-based, human; settings: ATF4 luciferase reporter, HEK293T cells; read-out: IC50 (nM) Cell-luc
Source text: FIGS. 1A-1C. […]
To identify inhibitors of PERK signaling, we engineered a reporter that allows monitoring of PERK activation in living cells. To this end, we constructed a retroviral vector containing the open-reading frame of firefly luciferase fused to the 5′UTR of ATF4 mRNA (FIG. 1A), which contains two short open-reading frames (uORFs) that control ATF4 translation in a stress-dependent manner. After infection, we established a HEK293T cell line harboring the stably integrated reporter. […] This format was used to screen 106,281 compounds covering a wide chemical space. We identified 460 hits (0.43%) (FIG. 1C), which were further validated in an 8-point dose-response assay using the same reporter. We further triaged the compounds by discarding inhibitors that also affected the IRE1 branch of the UPR using an XBP1-luciferase splicing reporter. […] We next used an orthogonal secondary screen that employed a different reporter (bi-cistronic ATF4-dGFPIRES-mCherry) stably integrated into a different cell line (U20S cells). The read-out of this latter screen was microscopy-based, which allowed us to simultaneously assess acute toxicity by cell counting, further reducing the number of viable hits to 77. As a tertiary screen, we tested compounds for their ability to inhibit ER stress-elicited induction of endogenous ATF4 by Western blot analysis. Twenty-eight compounds passed this test and were analyzed further.
ATF4 reporters were constructed by fusing the human full-length ATF4 5′-UTR (NCBI Accession BC022088.2) in front of the firefly luciferase (FLuc) or a destabilized eGFP (dEGFP) coding sequences lacking the initiator methionine.
The ATF4-FLuc reporter was generated by cloning a PCR-product containing the ATF4 full-length 5′-UTR (from +1 position a the transcription start site down to one nucleotide after the terminator codon of the second uORF) flanked by KpnI/XhoI and BglII sites at the 5′ and 3′ ends, respectively, into the KpnI-BglII sites of pCAX-F-XBP1-Luc. The resulting construct, pCAX-ATF4-FLuc, was then digested with BamHI, blunted with T4 DNA polymerase, and then digested with XhoI. The resulting fragment was then subcloned into the retroviral expression vector pLPCX (Clontech) after digesting it with HindIII, blunting with T4 DNA polymerase and then digesting with XhoI to generate pLPCX-ATF4-FLuc (DAA-312). DAA-312 was used to produce recombinant retroviruses using standard methods and the resulting viral supernatant was used to transduce HEK293T cells, which were then subsequently selected with puromycin to generate a stable cell line employed in the primary screen.
HEK293T cells carrying the ATF4 luciferase reporter were plated on poly-lysine coated 384 well plates (Greiner) at 30,000 cells per well. […] Luminescence was measured using One Glo (Promega) as specified by the manufacturer. […] Thus, these were considered unique to the PERK branch and were cherry-picked for further analysis.

Row | Compound | IC50 [nM]
1 | O=C(COc1ccc(Cl)cc1)N[C@H]1CC[C@H](NC(=O)COc2ccc(Cl)c([N+](=O)[O-])c2)CC1 [compound 874804] | 3
2 | C#Cc1ccc(OCC(=O)N[C@H]2CC[C@H](NC(=O)COc3ccc(N=[N+]=[N-])cc3)CC2)cc1 [compound 957866] | 232
3 | O=C(COc1ccc(Cl)c([N+](=O)[O-])c1)N[C@H]1CC[C@H](NC(=O)COc2ccc(Cl)c([N+](=O)[O-])c2)CC1 [compound 957889] | 11
4 | N=C(COc1ccc(Cl)c(F)c1)N[C@H]1CC[C@H](NC(=O)COc2ccc(Cl)c(F)c2)CC1 [compound 957915] | 344
5 | N=C(COc1ccc(Cl)c(F)c1)N[C@H]1CC[C@H](NC(=O)COc2ccc(Cl)c(F)c2)CC1 [compound 957916] | 122

same assay, conditions: Homo sapiens, HEK-293T, ATF4 luciferase reporter, HEK293T cells; read-out: IC50 (nM) Cell-luc

Row | Compound | IC50 [nM]
6 | CC(=O)c1cc(Cl)ccc1OCC(=O)N[C@H]1CC[C@H](NC(=O)COc2ccc(Cl)cc2)CC1 [compound 873972] | > 10000
7 | O=C(COc1ccc(Cl)cc1)N[C@H]1CC[C@H](NC(=O)COc2ccc(Cl)cc2C(=O)c2ccccc2)CC1 [compound 873973] | > 10000
8 | O=C(COc1ccc(Cl)cc1)NCc1ccc(CNC(=O)COc2ccc(Cl)cc2)cc1 [compound 874796] | > 10000
9 | O=C(COc1ccc(Cl)cc1)N[C@H]1CC[C@H](NC(=O)OCc2ccc(Cl)cc2)CC1 [compound 874797] | 122
10 | CC(C)c1ccc(OCC(=O)N[C@H]2CC[C@H](NC(=O)COc3ccc(Cl)cc3)CC2)cc1 [compound 874798] | 200
11 | CC(Oc1ccc(Cl)cc1)C(=O)N[C@H]1CC[C@H](NC(=O)COc2ccc(Cl)cc2)CC1 (stereo partly drawn) [compound 874799] | 210
12 | O=C(COc1ccc(Cl)cc1)N[C@H]1CC[C@H](NC(=O)COc2ccc(Cl)c(Cl)c2)CC1 [compound 874800] | 2
13 | Cc1cc(OCC(=O)N[C@H]2CC[C@H](NC(=O)COc3ccc(Cl)cc3)CC2)ccc1Cl [compound 874801] | 2.4
14 | O=C(COc1ccc(Cl)cc1)N[C@H]1CC[C@H](NC(=O)COc2ccc(Cl)c(F)c2)CC1 [compound 874802] | 2
15 | O=C(COc1ccc(Cl)cc1)N[C@H]1CC[C@H](NC(=O)COc2ccc(Cl)c(C(F)(F)F)c2)CC1 [compound 874803] | 4
16 | Clc1ccccc1CNC[C@H]1CC[C@H](CNCc2ccccc2Cl)CC1 [compound 874805] | > 10000
17 | O=C(Cc1ccc(Cl)cc1)NCc1ccc(CNC(=O)Cc2ccc(Cl)cc2)cc1 [compound 885253] | > 10000
18 | O=C(NCc1ccc(CNC(=O)Oc2ccc(Cl)cc2)cc1)Oc1ccc(Cl)cc1 [compound 885254] | > 10000
19 | O=C(COc1ccc(Cl)cc1)N[C@H]1CC[C@H](CNC(=O)Oc2ccc(Cl)cc2)CC1 [compound 885255] | 30
20 | O=C(Cc1ccc(Cl)cc1)NC[C@H]1CC[C@H](NC(=O)COc2ccc(Cl)cc2)CC1 [compound 885256] | 152
21 | O=C(N[C@H]1CC[C@H](NC(=O)OCc2ccc(Cl)cc2)CC1)OCc1ccc(Cl)cc1 [compound 885257] | > 10000
22 | O=C(COc1ccc(Cl)cc1)N[C@H]1CC[C@H](NC(=O)COc2cccc(F)c2)CC1 [compound 912562] | 125
23 | O=C(COc1ccc(Cl)cc1)N[C@H]1CC[C@H](NC(=O)COc2cccc(F)c2F)CC1 [compound 912563] | 334
24 | O=C(COc1ccc(Cl)cc1)N[C@H]1CC[C@H](NC(=O)COc2cc(F)cc(F)c2)CC1 [compound 912564] | 220
25 | O=C(COc1ccc(Cl)cc1)N[C@H]1CC[C@H](NC(=O)COc2cc(Cl)cc(Cl)c2)CC1 [compound 912565] | > 10000
26 | CC(=O)c1cc(OCC(=O)N[C@H]2CC[C@H](NC(=O)COc3ccc(Cl)cc3)CC2)ccc1Cl [compound 912566] | 149

Row | Compound | IC50 [nM]
27 | O=C(NC[C@H]1CC[C@H](CNC(=O)Oc2ccc(Cl)cc2)CC1)Oc1ccc(Cl)cc1 [compound 913815] | > 10000
28 | O=C(COc1ccc(Cl)cc1)N[C@H]1CC[C@H](NC(=O)COc2ccc(Cl)c(I)c2)CC1 [compound 914582] | 5.2
29 | C[Si](C)(C)C#Cc1cc(OCC(=O)N[C@H]2CC[C@H](NC(=O)COc3ccc(Cl)cc3)CC2)ccc1Cl [compound 914583] | 12
30 | C#Cc1cc(OCC(=O)N[C@H]2CC[C@H](NC(=O)COc3ccc(Cl)cc3)CC2)ccc1Cl [compound 914584] | 12
31 | O=C(COc1ccc(Cl)cc1)N[C@H]1CC[C@H](NC(=O)COc2ccc(I)cc2)CC1 [compound 914989] | 5.6
32 | C[Si](C)(C)C#Cc1ccc(OCC(=O)N[C@H]2CC[C@H](NC(=O)COc3ccc(Cl)cc3)CC2)cc1 [compound 916348] | 160
33 | C#Cc1ccc(OCC(=O)N[C@H]2CC[C@H](NC(=O)COc3ccc(Cl)cc3)CC2)cc1 [compound 916353] | 14
34 | C[C@@H]1NC(=O)N[C@@H]1CCCCCC(=O)NCCOCCOCCOCCn1cc(-c2ccc(OCC(=O)N[C@H]3CC[C@H](NC(=O)COc4ccc(Cl)cc4)CC3)cc2)nn1 [compound 916727] | 520
35 | C[C@@H]1NC(=O)N[C@@H]1CCCCCC(=O)NCCOCCOCCOCCn1cc(-c2cc(OCC(=O)N[C@H]3CC[C@H](NC(=O)COc4ccc(Cl)cc4)CC3)ccc2Cl)nn1 [compound 916728] | 1270
36 | C#Cc1ccc(OCC(=O)N[C@H]2CC[C@H](NC(=O)COc3ccc(C4(C(F)(F)F)N=N4)cc3)CC2)cc1 [compound 916751] | > 10000
37 | O=C(COc1ccc(I)cc1)N[C@H]1CC[C@H](NC(=O)COc2ccc(I)cc2)CC1 [compound 916784] | 51
38 | C[Si](C)(C)C#Cc1ccc(OCC(=O)N[C@H]2CC[C@H](NC(=O)COc3ccc(C#C[Si](C)(C)C)cc3)CC2)cc1 [compound 916785] | > 10000
39 | C#Cc1ccc(OCC(=O)N[C@H]2CC[C@H](NC(=O)COc3ccc(C#C)cc3)CC2)cc1 [compound 916786] | 158
40 | O=C(CCCC[C@H]1SC[C@@H]2NC(=O)N[C@@H]21)NCCCCCOC(=O)CCCCCn1cc(-c2ccc(OCC(=O)N[C@H]3CC[C@H](NC(=O)COc4ccc(Cl)cc4)CC3)cc2)nn1 [compound 916846] | 200
41 | O=C(CCCC[C@H]1SCC2NC(=O)NC21)NCCCCCOC(=O)CCCCCn1cc(-c2cc(OCC(=O)N[C@H]3CC[C@H](NC(=O)COc4ccc(Cl)cc4)CC3)ccc2Cl)nn1 (stereo partly drawn) [compound 916847] | 900
42 | C#Cc1ccc(OCC(=O)N[C@H]2CC[C@H](NC(=O)COc3ccc(Cl)c(C4(C(F)(F)F)N=N4)c3)CC2)cc1 [compound 955278] | > 10000
43 | O=C(COc1ccc(Cl)c(Cl)c1)N[C@H]1CC[C@H](NC(=O)COc2ccc(Cl)c(Cl)c2)CC1 [compound 957885] | 0.8
44 | Cc1cc(OCC(=O)N[C@H]2CC[C@H](NC(=O)COc3ccc(Cl)c(C)c3)CC2)ccc1Cl [compound 957886] | 3
45 | O=C(COc1ccc(Cl)c(C(F)(F)F)c1)N[C@H]1CC[C@H](NC(=O)COc2ccc(Cl)c(C(F)(F)F)c2)CC1 [compound 957887] | 11
46 | O=C(COc1ccc(Cl)c(F)c1)N[C@H]1CC[C@H](NC(=O)COc2ccc(Cl)c(F)c2)CC1 [compound 957888] | 0.6
47 | N=C(COc1ccc(Cl)c(Cl)c1)N[C@H]1CC[C@H](NC(=O)COc2ccc(Cl)c(Cl)c2)CC1 [compound 957914] | 40

same assay, conditions: Homo sapiens, HEK-293T, read-out: IC50 (nM) Cell-luc

Row | Compound | IC50 [nM]
48 | O=C(COc1ccc(I)cc1)N[C@H]1CC[C@H](NC(=O)COc2ccc(C3(C(F)(F)F)NN3)cc2)CC1 [compound 916744] | > 10000
